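These data come from cells grown in 96-well plates and exposed to compound for 48 hours at five concentrations. TGI: total growth inhibition.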
Legend:
Experiment in all cases: DTP human tumour cell line panel, 48 h
[1] = tested on: SNB-19 CNS
[2] = tested on: RPMI-8226 leukemia
[3] = tested on: MDA-N
[4] = tested on: SK-MEL-5 melanoma
[5] = tested on: T-47D breast
[6] = tested on: SN12C renal
[7] = tested on: KM12 colon
[8] = tested on: RXF 393 renal
[9] = tested on: K-562 leukemia
[10] = tested on: HOP-62 NSCLC
[11] = tested on: UO-31 renal
[12] = tested on: M14 melanoma

SMILES | TGI [1] | TGI [2] | TGI [3] | TGI [4] | TGI [5] | TGI [6] | TGI [7] | TGI [8] | TGI [9] | TGI [10] | TGI [11] | TGI [12]
COC(NC(=O)Nc1ccc(C)cc1)(C(F)(F)F)C(F)(F)F | 87.2 µM | 74.8 µM | 94.6 µM | 30.6 µM | 97.7 µM | > 100 µM | > 100 µM | 71.7 µM | > 100 µM | > 100 µM | 53.6 µM | > 100 µM
CCn1c(SCC(=O)N/N=C2\SCC(=O)N2c2ccc(C)cc2)nc2ccccc2c1=O | 43.6 µM | 52.7 µM | 53.4 µM | 50 µM | 54.9 µM | 50.4 µM | 47.3 µM | 53.8 µM | > 100 µM | 50.7 µM | 30.3 µM | > 100 µM
Nc1ncnc2c1ncn2[C@H]1C=C[C@@H](NO)C1 | > 100 µM | > 100 µM | > 100 µM | > 100 µM | > 100 µM | > 100 µM | > 100 µM | > 100 µM | > 100 µM | > 100 µM | > 100 µM | > 100 µM
